# Source: patent publication US5324648A, “Substituted isocoumarins as serine protease inhibitors and anti-inflammatory agents” (Georgia Tech Research Corporation, priority 1992, dated 1994)
# What was measured:
# Type in all cases: biochemical
# complement protein D = complement protein D (Homo sapiens, UniProt P00746); assay: Inactivation rate of complement protein D; conditions: Table II; pH 7.5, 25° C; [I] 0.05 to 1.29 mM
# Procedure: (§1) Inactivation rates of serine proteases by substituted isocoumarins were measured by the incubation method. An aliquot of inhibitor (25 or 50 μl) in Me2 SO was added to a buffered enzyme solution (0.01-2.3 μM) to initiate the inactivation. Aliquots (50 μl) were withdrawn at various intervals and the residual enzymatic activity was measured. Me2 SO concentration in the reaction mixture was 8-12% (v/v). 0.1 Hepes, 0.01M CaCl2, pH 7.5 buffer was utilized for trypsin and coagulation enzymes. 0.1M Hepes, 0.5M NaCl, pH 7.5 was utilized for other serine proteases. The inhibitor concentrations are shown in all the tables. Peptide thioesters or peptide nitroanilides with appropriate sequence were used as substrates for various serine proteases. All peptide thioester hydrolysis rates were measured with assay mixtures containing 4,4'-dithiodipyridine (ε324 =19800M^-1 cm^-1; Grasetti & Murray, Arch. Biochem. Biophys. 119, pp 41-49 (1967)). Peptide 4-nitroanilide nitroanilide hydrolysis was measured at 410 nm (ε410 =8800M^-1 cm^-1; Erlanger et al., Arch. Biochem. Biophys. 95, pp 271-278 (1961)). First order inactivation rate constant (kobs) were obtained from plots of ln (vt /vo) vs time, and the correlation coefficients were greater than 0.98.
# (§2) ^a Conditions were 0.1M Hepes, 0.5M NaCl, pH 7.5, 8-10% Me2 SO
# (§3) and 25° C. Inactivation rates were measured by incubation method.
# (§4) Enzyme concentrations were as follows: protein D, 1-9 μM; C2, 0.7-1
# (§5) μM; B, 1.8 μM; Bb, 0.3-0.8 μM; Cl^- s, 0.07 μM; Cl^-
# complement protein C2 = molecular target: T1, complement protein C2 (Homo sapiens, UniProt P06681); assay: Inactivation rate of complement protein C2
# T1 sequence (P06681 21-752): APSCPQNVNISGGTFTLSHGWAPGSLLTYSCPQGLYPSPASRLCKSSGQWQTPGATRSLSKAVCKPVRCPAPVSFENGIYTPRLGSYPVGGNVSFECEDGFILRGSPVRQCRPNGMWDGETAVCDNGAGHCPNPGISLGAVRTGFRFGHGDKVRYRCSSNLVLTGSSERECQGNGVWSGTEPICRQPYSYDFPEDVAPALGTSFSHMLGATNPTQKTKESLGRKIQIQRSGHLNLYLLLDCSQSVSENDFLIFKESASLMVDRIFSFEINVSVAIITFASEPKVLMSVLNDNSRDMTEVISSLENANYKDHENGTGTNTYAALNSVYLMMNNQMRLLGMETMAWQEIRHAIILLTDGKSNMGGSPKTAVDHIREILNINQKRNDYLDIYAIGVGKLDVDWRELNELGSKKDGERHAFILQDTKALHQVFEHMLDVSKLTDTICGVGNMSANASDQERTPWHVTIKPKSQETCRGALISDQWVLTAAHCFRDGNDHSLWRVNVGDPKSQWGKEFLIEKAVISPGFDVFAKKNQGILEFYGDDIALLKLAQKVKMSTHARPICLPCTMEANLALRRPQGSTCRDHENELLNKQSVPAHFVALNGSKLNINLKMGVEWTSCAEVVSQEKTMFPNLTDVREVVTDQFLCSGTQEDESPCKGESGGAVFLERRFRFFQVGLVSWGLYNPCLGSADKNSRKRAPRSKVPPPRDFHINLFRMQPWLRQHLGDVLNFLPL
# Procedure: as §1, §2, §3, §4, §5
# complement protein B = complement protein B (Homo sapiens, UniProt P00751); assay: Inactivation rate of complement protein B
# Procedure: as §1, §2, §3, §4, §5
# [1] = molecular target: sheep lung lymph tryptase; assay: Inactivation rate of sheep lung lymph tryptase; conditions: Table III; 0.1M Hepes, 0.5M NaCl, pH 7.0, 25° C
# Procedure: Inactivation rates of serine proteases by substituted isocoumarins were measured by the incubation method. An aliquot of inhibitor (25 or 50 μl) in Me2 SO was added to a buffered enzyme solution (0.01-2.3 μM) to initiate the inactivation. Aliquots (50 μl) were withdrawn at various intervals and the residual enzymatic activity was measured. […] 0.1 Hepes, 0.01M CaCl2, pH 7.5 buffer was utilized for trypsin and coagulation enzymes. […] The inhibitor concentrations are shown in all the tables. Peptide thioesters or peptide nitroanilides with appropriate sequence were used as substrates for various serine proteases.
# ^a Inactivation rates were measured at 0.1M Hepes, 0.5M NaCl, pH 7.5
# buffer, 8% Me2 SO and 25° C.
# Sequence of complement protein B (P00751 26-764): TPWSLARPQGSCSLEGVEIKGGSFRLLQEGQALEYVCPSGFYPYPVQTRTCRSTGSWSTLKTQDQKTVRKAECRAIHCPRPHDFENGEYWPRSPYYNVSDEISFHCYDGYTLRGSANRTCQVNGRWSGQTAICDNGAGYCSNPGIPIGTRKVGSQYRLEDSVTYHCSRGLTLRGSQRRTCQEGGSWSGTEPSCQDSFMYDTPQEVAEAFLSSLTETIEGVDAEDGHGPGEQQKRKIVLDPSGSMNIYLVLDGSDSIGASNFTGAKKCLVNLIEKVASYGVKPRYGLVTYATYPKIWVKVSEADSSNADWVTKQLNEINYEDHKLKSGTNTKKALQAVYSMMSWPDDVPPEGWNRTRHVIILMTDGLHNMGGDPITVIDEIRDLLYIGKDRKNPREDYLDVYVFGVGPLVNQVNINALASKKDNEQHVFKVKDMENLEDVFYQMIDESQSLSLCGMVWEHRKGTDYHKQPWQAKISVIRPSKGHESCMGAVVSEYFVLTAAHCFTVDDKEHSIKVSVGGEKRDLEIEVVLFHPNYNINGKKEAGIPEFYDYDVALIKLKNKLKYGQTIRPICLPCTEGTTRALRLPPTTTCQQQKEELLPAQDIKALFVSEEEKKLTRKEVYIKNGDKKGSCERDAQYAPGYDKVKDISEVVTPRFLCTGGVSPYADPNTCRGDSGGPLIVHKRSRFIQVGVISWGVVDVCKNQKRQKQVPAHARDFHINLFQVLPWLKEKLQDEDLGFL
# Sequence of complement protein D (P00746 26-253): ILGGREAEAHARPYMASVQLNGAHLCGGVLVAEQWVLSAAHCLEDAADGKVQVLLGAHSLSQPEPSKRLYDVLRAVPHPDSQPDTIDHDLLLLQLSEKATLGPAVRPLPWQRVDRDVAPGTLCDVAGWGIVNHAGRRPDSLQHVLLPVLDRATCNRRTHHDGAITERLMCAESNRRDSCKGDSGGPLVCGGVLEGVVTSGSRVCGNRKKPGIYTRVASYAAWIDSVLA
smiles,measurement,setting,value
"N=C(N)c1ccc(CS(=O)(=O)F)cc1 [APMSF, 4-amidinophenylmethane sulfonyl fluoride, reference compound]",kobs/[I],complement protein D,110 M⁻¹ s⁻¹
same,inhibition of C2 (in words),complement protein C2,do not show any inhibition
same,inhibition of protein B (in words),complement protein B,do not show any inhibition
same,kobs/[I],[1],230 M⁻¹ s⁻¹
